row,Structure (SMILES),melting point [°C]
1,Cc1ccccc1NO,38 to 39
2,COc1ccc(CN2C(=O)CN(Cc3ccc4c(OC)ccnc4c3)S2(=O)=O)c(OC)c1,128 to 132
3,Cc1nnc(N2N=C(c3ccc([N+](=O)[O-])cc3)c3cc4c(cc3C[C@H]2C)OCO4)o1,202 to 204
4,O=C(C1=CCCCC1)c1cc(-c2ccccc2)no1,70 to 71
5,Nc1c(C(F)(F)F)cc(Cl)c2[nH]c(=O)c(=O)[nH]c12,> 360
6,O=C1c2cc([N+](=O)[O-])ccc2CCC1Br (configuration not stated),94 to 96
7,NC(=O)CNC(=S)Nc1ccccc1,150 to 152
8,COc1ccc(C(=O)O)nc1Oc1cccc(C(F)(F)F)c1,116 to 118
9,O=C1NN=C(c2ccc3c(c2)C2(CCCS2)C(=O)N3)CS1 (configuration not stated),284
10,Brc1csc(-c2cn([C@H]3CN4CCC3CC4)nn2)c1,106
11,CS(=O)(=O)N1CC(=O)NC(=O)N1Cc1ccc(Cl)cc1,145
12,CC(Cl)c1nnc2n1-c1ccc(Cl)cc1C(c1ccccc1)=NC2 (configuration not stated),154 to 156
13,COc1cc2nc(-c3n[nH]cc3NC(=O)N3CCCCC3)[nH]c2cc1Cl,> 310
14,Brc1cc(Br)c(CSCc2cc(Br)c(Br)cc2Br)cc1Br,173 to 175
15,Nc1ccc2c(c1)S(=O)(=O)NCCO2,179
16,COc1cc(Nc2c(C#N)cnc3cc(-c4cnc(CN5CCN(C)CC5)n4C)sc23)c(Cl)cc1Cl,234 to 235
17,O=C(NC(=O)c1ccccc1Cl)C(=C1NCCCS1)[N+](=O)[O-],130 to 131
18,N#CCc1nnc(N)s1,163 to 164
19,Cc1csc(CC(=O)O)c1,49
20,CCS(=O)(=O)NCC(O)(Cn1cncn1)c1ccc(Cl)cc1Cl (configuration not stated),144 to 145
21,O=[N+]([O-])c1ccc(C(O)c2ccoc2)cc1 (configuration not stated),50 to 52
22,C[C@@H](CC(=O)O)OC(=O)OCc1ccc([N+](=O)[O-])cc1,78 to 81

row,Structure (SMILES),melting point [°C]
1,C=C(Cc1ccc(OC)cc1)C(=O)O,88 to 91
2,Cc1ccc(S(N)(=O)=O)cc1Br,156
3,COc1ccc(CCNCC(O)c2ccc(C)s2)cc1OC (configuration not stated),108 to 110
4,CSc1ccc(CC#N)cc1,44 to 45
5,CCOCc1nc2c(N)nc3ccccc3c2n1CC1(O)CCC2(CC1)OCCO2,207 to 209
6,COCCCn1c(Cl)nc2ccc(C)cc21,40 to 44
7,O=C(Nc1nc(-c2ccco2)c(C(=O)C2CCOCC2)s1)c1ccco1,196 to 198
8,N#Cc1ncccc1CCc1cccc(Cl)c1,72 to 73
9,CN(C(=O)CCCOc1ccc2nc3n(c(=O)c2c1)CS(=O)(=O)N3)C1CCCCC1,> 330
10,CN1CCCC(c2nc3cccnc3[nH]2)C1 (configuration not stated),141 to 144
11,N#Cc1cc([N+](=O)[O-])ccc1N1CCC(=O)CC1,109
12,O=[N+]([O-])C1([N+](=O)[O-])COC1,70 to 71
13,Cc1cc(I)ccc1Nc1c(-c2nnc(S)o2)ccc(F)c1F,232 to 233
14,N#Cc1ccc(N2CCC(F)(F)C2)c2ccsc12,169 to 170
15,CCC(c1ccc(Br)cc1)N(O)C(=O)NC (configuration not stated),110 to 112
16,O=C(O)[C@H]1NCC[C@@H](O)[C@@H]1O,253 to 260
17,O=CNCS(=O)(=O)c1ccccc1,106 to 107
18,O=C(O)c1nn(Cc2ccc(Cl)cc2Cl)c2c1Cc1cc(Cl)ccc1-2,> 260
19,CCN(CC)CCNc1ccc(NCCN(CC)CC)c2c1C(=O)c1ccccc1C2=O,109
20,C#CCOc1ccccc1S(N)(=O)=O,143 to 145
21,"CC12CCC(CN([Si](C)(C)C)S(=O)(=O)C1)C2(C)C (single isomer, unassigned; (-))",63 to 73
22,NC(=O)C(O)C1CC=CCC1 (configuration not stated),139 to 141

row,Structure (SMILES),melting point [°C]
1,ClCc1cccc(CCl)n1,74.5 to 75.5
2,CS(=O)(=O)OCCCCC1C(=O)Nc2ccc(F)cc21 (configuration not stated),106 to 108
3,CC1(C)COc2ccc(C(=O)O)cc2OC1,172 to 173
4,c1ccc(-c2ccc(OCC3CO3)cc2)cc1 (configuration not stated),80.2 to 82.9
5,O=C(Cc1cccc(C(F)(F)F)c1)N1CCc2cc3c(cc2CC1)OCO3,102 to 104
6,Cn1c(C(N)=O)c2n(c1=O)-c1ccc(Cl)cc1C(c1ccccc1Cl)=NC2,158 to 160
7,CCOc1cc2c(Cl)ccnc2nc1C,164
8,CCS(=O)(=O)NC1CCCOc2c(C)cc(Cl)cc21 (configuration not stated),144 to 145
9,Cc1cc(Cl)ccc1OC(Cn1cncn1)C(O)C(C)(C)C (configuration not stated),124 to 126
10,CC(Cl)(Cl)C(NC(=O)c1ccc(Cl)cc1)NC(=NC#N)Nc1cccnc1Cl (configuration not stated),135 to 137
11,CCCCC(=O)NC(C(=O)OCC)=C(N)SCCOC(C)=O,84
12,CCCNc1nc(=O)n(CC2CC2)c2nc(C(C)C)[nH]c12,208 to 210
13,O=C1NC(=O)c2ccccc2/C1=C/Nc1ccc(CN2CCCCC2)cc1,185 to 186
14,CC(C)CCCC(C)C1CC(=O)C2=C3C(F)CC4CC(OC(=O)c5ccccc5)CCC4(C)C3CCC21C (configuration not stated),144 to 145
15,CN(Cc1ccc(F)cc1)C(=O)c1cnc2c([N+](=O)[O-])cccc2c1Cl,135 to 137
16,COCCNS(=O)(=O)c1ccc(C(CC2CCCC2)C(=O)Nc2nc3ccc(OC)nc3s2)cc1 (configuration not stated),209 to 211
17,CS(=O)(=O)c1ccc(-c2cnn(-c3ccc([N+](=O)[O-])cc3)c(=O)c2-c2ccc(F)cc2)cc1,110 to 116
18,Cc1cc(Br)ccc1NC(=O)CC(=O)NCCO,139 to 142
19,CCCc1cc(NC(=O)c2c(C)nn(C)c2C)c(C)cc1C(OC)(C(F)(F)F)C(F)(F)F,132 to 134
20,COc1cc(OC)nc(Oc2cccc(Oc3nc(OC)cc(OC)n3)c2C=O)n1,129
21,CCCCCCCCCCCCn1nnc(C(=O)O)n1,122 to 124

# Results, then the compound that gave them:
row,melting point [°C],Structure (SMILES)
1,136 to 140,Cc1cccc(NC(=O)NC2CN(C(=O)C(C)(C)C)c3ccccc3N(CC(=O)OCc3ccccc3)C2=O)c1 (configuration not stated)
2,55 to 56,C[C@H](NC(=O)COc1ccc2c(-c3ccccc3)nn(C)c2n1)c1ccccc1
3,125 to 126,Cc1ccc(NC(=O)C(=O)N2CCC(Cc3ccc(F)cc3)CC2)cc1
4,115 to 119,CC(N)=Nc1ccc(Cl)cc1Cc1ccccc1F
5,56 to 58,CCn1cccc1Cc1cccc(NC(N)=O)c1
6,181 to 184,COC1=CC(=O)N(Cc2ncn(C(c3ccccc3)(c3ccccc3)c3ccccc3)c2C)CC1
7,77 to 78,O=C(O)COCc1cccc(-c2ccccc2OC2OC(CO)C(O)C(O)C2O)c1 (configuration not stated)
8,149 to 150,N#CCCNC(=O)c1cccc(-c2cccc(Oc3cc(Cl)ccc3Cl)n2)c1
9,151 to 153,NC(=O)C1=NN(c2cccc(COCC(F)(F)C(F)(F)F)c2)C(c2ccccc2F)N1 (configuration not stated)
10,92 to 94,CC(C)n1cc(-c2ccc(Oc3ccccc3)c(CO)c2)c2c(N)ncnc21
11,220 to 222,Cc1ccc(-c2cccc(/C=C/C(=O)Nc3ccc(-c4ccccn4)cc3)c2)cc1
12,216 to 218,COc1ncccc1NC(=O)[C@H]1[C@H](c2ccc(S(N)(=O)=O)cc2)C1(C)C (relative stereo)
13,138 to 140,CC(C)C(=O)c1ccc2c(c1)CC(N1C(=O)c3ccccc3C1=O)C2 (configuration not stated)
14,130 to 132,O=C(O)[C@@H](CCN1C(=O)c2ccccc2C1=O)Oc1c(Br)cc(-c2c(Br)ccc3sc4ccccc4c23)cc1Br
15,> 205,Oc1ccc(-c2nn(-c3ccccc3F)c3cc(O)ccc23)c(O)c1
16,170 to 171,CC(C)(C)OC(=O)N1CC(CO)c2c1cc(OCc1ccccc1)c1ncccc21 (configuration not stated)
17,75 to 79,CC(C)C[C@H](NC(=O)COc1ccccc1)C(=O)N[C@@H](C(C)C)[C@H](O)c1c(-c2ccc(F)cc2)c1=O
18,155 to 156,C=CCN(CC=C)Cc1c(-c2ccccc2)sc(N)c1C(=O)c1ccc(Cl)cc1
19,148 to 153,N#CC(=CNc1ccccc1)Cc1ccc2ccccc2c1

row,melting point [°C],Structure (SMILES)
1,228 to 229,COc1ccc(F)c(OC)c1-c1ccc(C[C@H](NC(=O)c2c(Cl)cccc2Cl)C(=O)O)cc1
2,273 to 275,O=C(c1ccccc1)c1c[nH]c2ncnc(Nc3cccc(CO)c3)c12
3,180 to 182,COc1ccc(S(=O)(=O)Nc2cccc(C)c2NC(=O)c2ccccn2)cc1
4,206 to 207,NS(=O)(=O)c1ccc(-n2nc(CCCNC(=O)Nc3ccc(OC(F)(F)F)cc3)cc2-c2ccccc2)cc1
5,117 to 118,CCOC(=O)c1cn(Cc2ccc(Oc3ccccc3)cc2)nc1O
6,216 to 218,COc1cc(C(=O)O)ccc1Cn1cc(CCC(=O)N(C)C)c2ccc(CCC(=O)N(C)C)cc21
7,108 to 111,CCCc1ccc(OC(C)=O)c(C2(OC(C)=O)C(=O)c3ccccc3C2=O)c1
8,299 to 302,COc1ccc2[nH]c3c(c2c1)C[C@@]1(C)C(=O)N(CCBr)C(=O)N1[C@@H]3c1cccc(O)c1 (racemic)
9,141 to 142,Cn1cc(Br)c(-c2cccc(NC(=O)Cc3ccc(OC(F)(F)F)cc3)c2)n1
10,166 to 168,CCCCOC(=O)c1ccc(C(=O)NNC(=O)c2ccc(C(=O)OCCCC)cc2)cc1
11,132 to 134,CCCCOCCOc1ccc(-c2ccc(-n3cccn3)c(C=C(C)C(=O)O)c2)cc1
12,88 to 88.3,CCOC(=O)C(O)(CC(=O)c1ccc(-c2ccccc2)cc1)C(=O)OCC
13,282 to 284,O=c1c2c(Cc3ccccc3[N+](=O)[O-])n[nH]c2c2cccnc2n1-c1cccc(C(F)(F)F)c1
14,171 to 175,O=C(c1ccc(-c2ccc(NC(=S)Nc3ccccc3)cc2)o1)N1CCN2CCC1CC2
15,222 to 225,Cc1cc(C)c(Nc2nc(C)ccc2S(=O)(=O)c2ccc(C(=O)c3ccccc3)cc2)c(C)c1
16,252 to 253,Cc1cc(NC(=O)N2CCc3cc(N(C)C)ccc32)c2ccccc2n1
17,120 to 122,O=C(O)CCCN(C(=O)c1ccc(F)cc1)c1ccccc1-c1ccccc1
18,125 to 126,O=C(OCc1ccccc1)c1cc(Cl)c(Cl)c(Cl)n1

# — a melting point compilation (Tetko et al.; mined from patent text by program, amines drawn as free bases though some values may be those of a salt)
